Test results reported in patent US8748418B2, “1,4-oxazepines as BACE1 and/or BACE2 inhibitors” (Hoffmann-La Roche Inc., priority 2011, dated 2014).

Assays:
BACE1 = BACE1 (Homo sapiens (Human), UniProt P56817); test: Cellular Aβ-lowering assay (Aβ40 ELISA in HEK293 cells expressing human APP695); format: cell-based; details: HEK293 cells stably transfected with human APP wt (APP695), Aβ40 in supernatant after 18-20 hrs
Description: Cellular Aβ-Lowering Assay:
Human HEK293 cells which are stably transfected with a vector expressing a cDNA of the human APP wt gene (APP695) were used to assess the potency of the compounds in a cellular assay. The cells were seeded in 96-well microtiter plates in cell culture medium (Iscove, plus 10% (v/v) fetal bovine serum, glutamine, penicillin/streptomycin) to about 80% confluence and the compounds were added at a 10× concentration in 1/10 volume of medium without FCS containing 8% DMSO (final concentration of DMSO was kept at 0.8% v/v). After 18-20 hrs incubation at 37° C. and 5% CO2 in a humidified incubator the culture supernatant was harvested for the determination of Aβ40 concentrations. 96 well ELISA plates (e.g., Nunc MaxiSorb) were coated with monoclonal antibody which specifically recognize the C-terminal end of Aβ40 (Brockhaus et al., NeuroReport 9, 1481-1486; 1998). After blocking of non-specific binding sites with e.g. 1% BSA and washing, the culture supernatants were added in suitable dilutions together with a horseradish peroxidase-coupled Aβ detection antibody (e.g., antibody 4G8, Senetek, Maryland Heights, Mo.) and incubated for 5 to 7 hrs. Subsequently the wells of the microtiter plate were washed extensively with Tris-buffered saline containing 0.05% Tween 20 and the assay was developed with tetramethylbenzidine/H2O2 in citric acid buffer. After stopping the reaction with one volume 1NH2SO4 the reaction was measured in an ELISA reader at 450 nm wavelength. The concentrations of Aβ in the culture supernatants were calculated from a standard curve obtained with known amounts of pure Aβ peptide.

BACE2 = BACE2 (Homo sapiens (Human), UniProt Q9Y5Z0); test: Immunofluorescence Resonance Energy Transfer (FRET) assay for BACE2 inhibition; format: biochemical; details: TMEM27-based peptide substrate 5 μM, pH 4.5
BACE2, sequence (Q9Y5Z0 63-473): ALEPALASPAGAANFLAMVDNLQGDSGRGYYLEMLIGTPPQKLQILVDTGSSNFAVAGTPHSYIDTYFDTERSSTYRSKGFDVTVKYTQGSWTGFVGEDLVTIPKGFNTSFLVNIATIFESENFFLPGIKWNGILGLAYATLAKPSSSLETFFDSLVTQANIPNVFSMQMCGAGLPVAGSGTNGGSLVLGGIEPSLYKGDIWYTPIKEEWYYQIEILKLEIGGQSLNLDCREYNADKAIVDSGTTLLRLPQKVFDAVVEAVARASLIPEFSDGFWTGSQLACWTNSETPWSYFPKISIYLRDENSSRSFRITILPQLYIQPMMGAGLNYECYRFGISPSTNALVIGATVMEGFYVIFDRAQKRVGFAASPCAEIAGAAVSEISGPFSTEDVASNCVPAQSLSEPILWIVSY
Description: Immunofluorescence Resonance Energy Transfer (FRET) Assay for BACE2 Inhibition:
BACE2 enzyme ectodomain (derived from plasmid “pET17b-T7-hu proBACE2”) was prepared as described in Ostermann et al., “Crystal Structure of Human BACE2 in Complex with a Hydroxyethylamine Transition-state Inhibitor”, Journal of Molecular Biology 2006, 355, 249-261. The pro-enzyme was stored at 4° C. at a concentration of 70 μg/ml.
The FRET assay was performed essentially as described in Grüninger-Leitch et al., Journal of Biological Chemistry (2002) 277(7) 4687-93 (“Substrate and inhibitor profile of BACE (beta-secretase) and comparison with other mammalian aspartic proteases”). In summary, a peptide is designed that is cleaved by the protease. The peptide is labelled with dabcyl at the N terminus and Lucifer Yellow at the C-terminus, such that for an intact peptide the Lucifer Yellow fluorescence is quenched by the dabcyl. When the peptide is cut by BACE2, the quenching is removed and a fluorescent signal is generated.
The assay was performed as described in Grueninger et al. 2002 at pH 4.5 using a substrate concentration of 5 μM. A FRET peptide based on the TMEM27 sequence was devised. dabcyl-[…]-LucY (SEQ ID NO: 1).
The assay readout is the initial rate of change of fluorescence intensity giving a relative measure of BACE2 activity. Small values correspond to high inhibition and larger values to low inhibition. […] IC50 values were determined using these assay values generated for a range of inhibitor concentrations and the curve fitting software XLfit (IDBS) using the Sigmoidal Dose-Response Model.

BACE1, sequence (P56817 46-501): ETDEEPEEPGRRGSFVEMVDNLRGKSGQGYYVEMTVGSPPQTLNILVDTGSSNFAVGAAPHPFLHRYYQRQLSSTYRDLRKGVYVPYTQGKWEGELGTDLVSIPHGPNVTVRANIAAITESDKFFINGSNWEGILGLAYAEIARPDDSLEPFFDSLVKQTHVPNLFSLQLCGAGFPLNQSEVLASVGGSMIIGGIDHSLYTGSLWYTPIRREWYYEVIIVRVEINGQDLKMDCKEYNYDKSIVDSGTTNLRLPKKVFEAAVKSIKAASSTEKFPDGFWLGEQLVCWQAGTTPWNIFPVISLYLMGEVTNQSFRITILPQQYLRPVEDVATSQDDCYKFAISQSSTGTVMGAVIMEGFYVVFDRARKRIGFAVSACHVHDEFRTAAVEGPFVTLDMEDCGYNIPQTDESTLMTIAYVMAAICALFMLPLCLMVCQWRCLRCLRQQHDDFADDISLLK

IC50 (BACE1)	IC50 (BACE2)	SMILES
370 nM	1770 nM	CC1(C)OCC(N)=N[C@](C)(c2cc(Nc3ccc(Cl)nc3)ccc2F)C1(F)F [Example 22, (R)-5-[5-(6-Chloro-pyridin-3-ylamino)-2-fluoro-phenyl]-6,6-difluoro-5,7,7-trimethyl-2,5,6,7-tetrahydro-[1,4]oxazepin-3-ylamine]
440 nM	1360 nM	CC1(C)OCC(N)=N[C@](C)(c2cc(Nc3cncc(F)c3)ccc2F)C1(F)F [Example 23, (R)-6,6-Difluoro-5-[2-fluoro-5-(5-fluoro-pyridin-3-ylamino)-phenyl]-5,7,7-trimethyl-2,5,6,7-tetrahydro-[1,4]oxazepin-3-ylamine]
1100 nM	940 nM	CC1(C)OCC(N)=N[C@](C)(c2cc(Nc3cccnc3)ccc2F)C1(F)F [Example 24, (R)-6,6-Difluoro-5-[2-fluoro-5-(pyridin-3-ylamino)-phenyl]-5,7,7-trimethyl-2,5,6,7-tetrahydro-[1,4]oxazepin-3-ylamine]
410 nM	1630 nM	COc1ccc(Nc2ccc(F)c([C@@]3(C)N=C(N)COC(C)(C)C3(F)F)c2)cn1 [Example 25, (R)-6,6-Difluoro-5-[2-fluoro-5-(6-methoxy-pyridin-3-ylamino)-phenyl]-5,7,7-trimethyl-2,5,6,7-tetrahydro-[1,4]oxazepin-3-ylamine]
12700 nM	1490 nM	CC1(C)OCC(N)=N[C@](C)(c2cc(Nc3ccc(OCC(F)(F)F)nc3)ccc2F)C1(F)F [Example 28, (R)-6,6-Difluoro-5-{2-fluoro-5-[6-(2,2,2-trifluoro-ethoxy)-pyridin-3-ylamino]-phenyl}-5,7,7-trimethyl-2,5,6,7-tetrahydro-[1,4]oxazepin-3-ylamine]
